# “Also recorded” adds a separate entry of the source.
# Key:
# [1] = system: human psoriatic fibroblasts; assay: Inhibition of human psoriatic fibroblast proliferation; assay type: cell-based
# Description: PTX and PPF, alone as well as PTX in combination with other drugs were tested.
# Human psoriatic fibroblasts were obtained from skin biopsies of 5 individuals with plaque psoriasis. Cells in the 3-7th passages were used for the experiments. Human psoriatic fibroblasts (4×10^3 -6×10^3 cells) were added in 24-well plates and cultured in Dulbecco's Modified Eagle's Medium (DMEM) supplemented with 10% fetal calf serum, 2 mM L-glutamine, 100 u/ml penicillin, 100 μg/ml streptomycin (DMEM+) at 5% CO2 and 95% humidity at 37° C.
# After 3 days, medium was replaced with fresh DMEM+(control) or with medium containing various concentrations of compounds alone or in combination with pentoxifylline and incubation was continued for additional 3 days. Stock solutions (10^-1 -10^-2 M) of the compounds tested were made in ethanol. For these compounds special control (DMEM+ with 1% ethanol) was made. The compounds tested together with pentoxifylline were 3-heptanone, 3,3-dimethylbutyric acid, lipoic acid, 1,25-dihydroxyvitamin D3 betamethasone dipropionate and hydrocortisone-17-butyrate.
# On the last day of experiments, the medium was aspirated and the cells were obtained by trypsinization. The number of cells in each well was counted by the use of an hemocytometer.
# The percentage of inhibition of fibroblast proliferation was calculated according to the formula: [formula] and the results are shown in Tables 3 and 4.
# [2] = system: human psoriatic skin transplants; assay: Topical treatment of human psoriatic skin transplanted to nude mice (epidermal thickness / acanthosis); assay type: in vivo, human skin on outbred Balb/C nude mice; details: for Average Improvement (decrease in epidermal thickness) / % Improvement (Decrease in Thickness): 7 days; for Average Improvement (decrease in epidermal thickness): placebo 5%
# Source text: Human psoriatic skin from psoriatic patients was transplanted to nude mice essentially according to the method of G. Kreuger et al., Prog. in Dermatol. […] The donors had stable plaque type psoriasis for at least one year preceding biopsy and had not received systemic anti-psoriatic therapy for the 4 weeks preceding biopsy. They had also not received topical therapy or U.V. therapy for the two weeks preceding biopsy. […] In this method the area (A) of the psoriasis in four main body parts (head (H), trunk (T), upper extremities (U) and lower extremities (L)) is assigned a value from 0-6 depending on the extent of psoriasis where O reflects no involvement and 6 reflects 90-100% involvement. The severity of the lesion is assessed based on three parameters: Erythema (E), Desquamation (scaling) (D) and Infiltration (I). The severity of each of these parameters is measured on a scale of 0-4 where 0 is no involvement and 4 is very sever. The total severity score is calculated according to the following formula: […]
# Split thickness biopsies of nonpustular psoriatic human tissue, 4×5 cm and 0.4 mm thick were obtained from the edge of established plaques from various donor patients. […] The grafts were allowed to heal for one week prior to topical application of the test preparations.
# Outbred Balb/C nude mice, 2 to 3 months of age were used in this study. The mice were obtained from the pathogen free animal breeding facility at the University of Tel Aviv (Israel) and were raised in the pathogen-free animal facility at the Faculty of Medicine, Technion-Israel Institute of Technology, Haifa, Israel.
# On the day following the end of treatment the severity of the psoriatic lesion was assessed and then the animals were sacrificed and the entire graft was excised and divided into two equal sections. One section was used to assess changes in the rate of proliferation by autoradiography (tritiated thymidine incorporation) while the other section was sectioned for microscopic histological assessment, including acanthosis and parakeratosis.
# In another series of experiments, human psoriatic skin of various severities was transplanted on each of 28 nude mice. The graft area was treated with various preparations as described above.
# The treatments were applied as creams and were administered as described above.
# [3] = system: human peripheral blood mononuclear cells (lymphocytes); assay: Inhibition of the mitogenic (PHA) stimulation of human lymphocytes (PBMC), [3H]thymidine; assay type: cell-based; details: for inhibition at 1000 µM / inhibition at 300 µM: Homo sapiens, Lymphocyte, lymphocytes from healthy volunteers, read-out: net inhibitory effect on the mitogenic stimulation of human lymphocytes; for inhibition at 1000 µM: 1 × 10^-3 M; for inhibition at 300 µM: 3 × 10^-4 M
# Description: Buffy coats from the Beilinson Medical Center Blood Bank or 20 mL samples of heparinized venous blood from healthy or atopic donors were used as a source for human peripheral blood mononuclear (PBM) cells. PBM cells were separated by Ficoll-Hypaque density gradient centrifugation. […] The nonadhering cells were stirred gently and carefully collected.
# PHA (1 μg/mL), indomethacin (5 μg/mL) and various xanthine derivatives were added at initiation of culture. Indomethacin was dissolved in ethanol. […] [methyl-^3 H]Thymidine (1 μCi/well) was added at 68 h, and the cells were harvested 4 h later using an automated cell harvester (Dynatech, Alexandria, Va.). Unless otherwise stated, all cultures were performed in triplicate.
# [4] = system: psoriasis lesions; assay: Clinical trial in psoriasis, 5% dyphylline cream vs placebo, PASI; assay type: in vivo, human patients; details: for % Decrease in PASI: 5% dyphylline cream, n = 33
# Description: Two similar plaque areas of psoriasis (i.e. both legs or forearms), were selected for treatment in each patient. In each patient one area on one side of the body was treated with 2% pentoxifylline formulated as in Example 1 and the other area on the other side of the body was treated with placebo cream formulated identically but without the pentoxifylline. The cream (formulation A in Example 1) was applied by the patient twice daily.
# The dermatological assessment was performed as follows. The dermatologist measured the area of the lesion in cm^2. The severity of each lesion was evaluated by grading erythema, scaling and thickness on a 0-4 scale where 0=none, 1=slight, 2=moderate, 3=severe and 4=exceptionally severe.
# Based on these measurements the Psoriasis Area Severity Index (PASI) was calculated for each of the 2 lesions on each patient as follows:
# PASI=Area x (Erythema+Thickness+Scaling)
# In a different series of tests 5% dyphylline cream was applied in the same vehicle that had been used to apply PTX cream. Thus the formulation used in this series of tests was the same as in Example 1 with the exception that 5% dyphylline was used in place of 2% pentoxifylline. The design of the trial was similar in all respects to the clinical trial of PTX described in Example 5 except that the number of patients was 33.
# [5] = system: peripheral blood mononuclear cells (PBMC); details: Ravid et al. 1990; cited from earlier work
# [6] = additional drug 10^-7 M with PTX 10^-4 M
# [7] = additional drug 10^-3 M with PTX 10^-3 M
# [8] = additional drug 10^-3 M with PTX 10^-4 M
# [9] = additional drug 10^-4 M with PTX 10^-3 M
# [10] = additional drug 10^-4 M with PTX 10^-4 M
structure (smiles),measurement,setting,value
"C=C1/C(=C\C=C2/CCC[C@]3(C)[C@@H]([C@H](C)CCCC(C)(C)O)CC[C@@H]23)C[C@@H](O)C[C@@H]1O [1,25(OH)2 D3, 1,25-dihydroxyvitamin D3]",% Inhibition of Proliferation,[1]; [6],49.5%
CCCCCC(C)=O [2-Heptanone],% Inhibition of Proliferation,[1]; [7],45%
same,% Inhibition of Proliferation,[1]; [8],18.6%
same,% Inhibition of Proliferation,[1]; [9],26.4%
same,% Inhibition of Proliferation,[1]; [10],21.0%
same,% Inhibition of Proliferation,[1]; additional drug 10^-5 M with PTX 10^-3 M,21.3%
"CC(C)(C)CC(=O)O [3,3dimethyl butyricacid, 3,3-dimethylbutyric acid]",% Inhibition of Proliferation,[1]; [7],21%
same,% Inhibition of Proliferation,[1]; [8],36.3%
same,% Inhibition of Proliferation,[1]; [9],17.2%
same,% Inhibition of Proliferation,[1]; [10],19.3%
"CCC(=O)OCC(=O)[C@@]1(OC(=O)CC)[C@@H](C)C[C@H]2[C@@H]3CCC4=CC(=O)C=C[C@]4(C)[C@@]3(F)[C@@H](O)C[C@@]21C [Betamethasone dipropionate, betamethasone dipropionate]",% Inhibition of Proliferation,[1]; [9],77.5%
same,% Inhibition of Proliferation,[1]; [10],55.8%
same,% Inhibition of Proliferation,[1]; [6],43.1%
CCC(=O)O[C@]1(C(=O)CCl)[C@@H](C)C[C@H]2[C@@H]3CCC4=CC(=O)C=C[C@]4(C)[C@@]3(F)[C@@H](O)C[C@@]21C [Clobetasol propionate],Average Improvement (decrease in epidermal thickness),[2]; 0.05% clobetasol propionate (Dermovate),35%
same,% Improvement (Decrease in Thickness),"[2]; 0.05% clobetasol propionate, donor patient 1 (PASI 3.2)",45%
same,% Improvement (Decrease in Thickness),"[2]; 0.05% clobetasol propionate, donor patient 3 (PASI 7.6)",41%
same,% Improvement (Decrease in Thickness),"[2]; 0.05% clobetasol propionate, donor patient 4 (PASI 17.6)",55%
same,% Improvement (Decrease in Thickness),"[2]; 0.05% clobetasol propionate, donor patient 5 (PASI 31.3)",0%
same,Epidermal Thickness (Acanthosis) after 7 days treatment,"[2]; 0.05% clobetasol propionate, donor patient 1 (PASI 3.2), before treatment 44 μm",24 μm
same,Epidermal Thickness (Acanthosis) after 7 days treatment,"[2]; 0.05% clobetasol propionate, donor patient 3 (PASI 7.6), before treatment 46 μm",27 μm
same,Epidermal Thickness (Acanthosis) after 7 days treatment,"[2]; 0.05% clobetasol propionate, donor patient 4 (PASI 17.6), before treatment 54 μm",24 μm
same,Epidermal Thickness (Acanthosis) after 7 days treatment,"[2]; 0.05% clobetasol propionate, donor patient 5 (PASI 31.3), before treatment 35 μm",47 μm
Cn1c(=O)c2c(ncn2CC(O)CO)n(C)c1=O (centres unmarked) [Dyphylline],SUCCESS RATIO (decrease of at least 15% in epidermal thickness),"[2]; 8% dyphylline, 7 days topical, placebo 0/6",0/2
same,% Improvement (Decrease in Thickness),"[2]; 8% dyphylline, donor patient 1 (PASI 3.2)",0%
same,% Improvement (Decrease in Thickness),"[2]; 8% dyphylline, donor patient 5 (PASI 31.3)",0%
same,Average Improvement (decrease in epidermal thickness),[2]; 8% dyphylline,0%
same,Epidermal Thickness (Acanthosis) after 7 days treatment,"[2]; 8% dyphylline, donor patient 1 (PASI 3.2), before treatment 44 μm",65 μm
same,Epidermal Thickness (Acanthosis) after 7 days treatment,"[2]; 8% dyphylline, donor patient 5 (PASI 31.3), before treatment 35 μm",45 μm
same,effectiveness in treating psoriasis (in words),"[2]; experiment of Table 1, transplanted skin",virtually inactive
same,effectiveness in treating psoriasis (in words),"[2]; experiment of Table 2, 28 nude mice",inactive
same,inhibition at 1000 µM,[3],24%
same,inhibition at 300 µM,[3],12%
same,effectiveness of treatment of psoriasis (in words),[4]; 5% dyphylline cream vs placebo,nearly ineffective with respect to placebo; also recorded: virtually inactive in the treatment of psoriasis
same,% Decrease in PASI,"[4]; 1 week, placebo 12.4",12.6%
same,% Decrease in PASI,"[4]; 2 weeks, placebo 30.0",25.9%
same,% Decrease in PASI,"[4]; 4 weeks, placebo 21.5",28.0%
same,% Decrease in PASI,"[4]; 6 weeks, placebo 15.6",26.5%
"O=C(O)CCCCC1CCSS1 (centres unmarked) [Lipoicacid, lipoic acid]",% Inhibition of Proliferation,[1]; [9],50.2%
same,% Inhibition of Proliferation,[1]; [10],14.5%
"CCCn1cnc2c1c(=O)n(CCCCC(C)=O)c(=O)n2C [Propentofylline, 3-methyl-7-propyl-1-(5-oxohexyl)-xanthine]",inhibition at 1000 µM,"[1]; Homo sapiens, Fibroblast, compound alone, 10^-3 M, Table 4",39 ± 7%
same,inhibition at 100 µM,"[1]; Homo sapiens, Fibroblast, compound alone, 10^-4 M, Table 4",20.3 ± 6.6%
same,inhibition at 1000 µM,[3],89%
same,inhibition at 300 µM,[3],88%
same,inhibition of the mitogenic stimulation compared with the other xanthine derivatives (in words),"[3]; vs theophylline and diphylline, healthy volunteers",inhibited the mitogenic stimulation to a far greater effect than the other xanthine derivatives
Cn1c(=O)c2[nH]cnc2n(C)c1=O [Theophylline],inhibition at 1000 µM,[3],59%
same,inhibition at 300 µM,[3],37%
C[C@@H]1C[C@H]2[C@@H]3CCC4=CC(=O)C=C[C@]4(C)[C@@]3(F)[C@@H](O)C[C@]2(C)[C@@]1(O)C(=O)CO [dexamethasone],inhibition of mitogenic stimulation of PBMC (in words),[5],inhibited the mitogenic stimulation of PBMC

# From US5565462A, “Composition for topical treatment of psoriasis and atopic dermatitis comprising a xanthine derivative” (Teva Pharmaceutical Industries, Ltd., priority 1991, dated 1996)
